How the values were obtained:
[1] = test system: barley powdery mildew fungus (Erysiphe graminis); test: Test Example 2: control effect against barley powdery mildew by foliage application; assay type: in vivo; details: wettable powder diluted to 100 ppm, 10 mL per pot foliage spray on barley; inoculated day after; 7 days after inoculation
[2] = test system: rice sheath blight fungus (Thanatephorus cucumeris); test: Test Example 8: control effect against rice sheath blight by box treatment (granule); details: 5 g of granule on nursery box, paddy rice; inoculated after 3 weeks; 7 days after inoculation
From the text: Control value (%)=[1−(lesion height in sprayed plot/lesion height in unsprayed plot)]×100 (d)
From the top of a nursery box, 5 g of a granule prepared according to Formulation Example-4 was applied to a 2.5-leaf-stage paddy rice (variety: Asahi) seedling raised using a nursery box ( 1/10 the area of standard nursery box in size: 12 cm×15 cm×height 4 cm) within a greenhouse. The formulation-treated paddy rice seedling was immediately transplanted at 5 seedlings/pot into a pot ( 1/10000 are in size) filled with paddy soil (flooded). After growing for 3 weeks within a greenhouse, a culture of rice sheath blight fungus (Thanatephorus cucumeris) grown in advance on a rice straw medium was inoculated into the root of the formulation-treated paddy rice, and disease development was promoted in an artificial weather chamber at 26° C. (relative humidity=100%). Seven days after the inoculation, the rice sheath blight lesion height (height from the root) was examined, and the control value (%) was calculated according to formula (d). […] This test was performed with three replications, each consisting of one plot and one pot, per one formulation plot, and its average evaluation value of control effect was determined.

[3] = test system: rice sheath blight fungus (Thanatephorus cucumeris); test: Test Example 6: control effect against rice sheath blight by box treatment (flowable formulation); details: flowable 5,000 ppm, 50 mL irrigation of nursery box, paddy rice; inoculated after 3 weeks; 7 days after inoculation
[4] = test system: rice sheath blight fungus (Thanatephorus cucumeris); test: Test Example 10: control effect against rice sheath blight by water surface application (flowable formulation); details: flowable 1,000 ppm, 1 mL dripped in paddy water, inoculated after 1 week, 7 days after inoculation
[5] = test system: rice blast fungus (Pyricularia grisea); assay type: in vivo; details: flowable 5,000 ppm, 50 mL irrigation of nursery box, paddy rice; inoculated after 3 weeks; 7 days after inoculation

Cn1cc(C(=O)N(C(=O)c2snc(Cl)c2Cl)c2ccccc2-c2ccccc2)c(C(F)F)n1 [1-61]
evaluation value of control effect (from control value, lesion area percentage) [1]: 4

Cn1cc(C(=O)N(C(=O)c2snc(Cl)c2Cl)c2ccccc2-c2cc(F)c(F)c(F)c2)c(C(F)F)n1 [1-65]
evaluation value of control effect (from control value, lesion area percentage) [1]: 5
evaluation value of control effect (from control value, lesion height) [2]: 5
evaluation value of control effect (from control value, lesion height) [3]: 5
evaluation value of control effect (from control value, lesion height) [4]: 5

CCC(C)Oc1cccc(N(C(=O)c2cn(C)nc2C(F)F)C(=O)c2snc(Cl)c2Cl)c1C (centres unmarked) [1-122]
evaluation value of control effect (from control value, lesion height) [2]: 5
evaluation value of control effect (from control value, lesion height) [3]: 5
evaluation value of control effect (from control value, lesion height) [4]: 5

Cc1nsc(C(=O)N(C(=O)c2cn(C)nc2C(F)F)c2ccccc2C(C)CC(C)C)c1Cl (centres unmarked) [1-140]
evaluation value of control effect (from control value, lesion area percentage) [1]: 5
evaluation value of control effect (from control value, lesion height) [2]: 5
evaluation value of control effect (from control value, lesion height) [3]: 5
evaluation value of control effect (from control value, lesion height) [4]: 5

Cc1nn(C)c(F)c1C(=O)N(C(=O)c1cc(Cl)nc(Cl)c1)c1ccccc1C(C)CC(C)C (centres unmarked) [1-266]
evaluation value of control effect (from control value, lesion area percentage) [1]: 4

Cc1nn(C)c(F)c1C(=O)N(C(=O)c1cccc2nnsc12)c1ccccc1C(C)CC(C)C (centres unmarked) [1-279]
evaluation value of control effect (from control value, lesion height) [2]: 5
evaluation value of control effect (from control value, lesion height) [3]: 5
evaluation value of control effect (from control value, lesion height) [4]: 5

CCc1nc(C(F)F)c(C(=O)N(C(=O)c2c(C)nn(C)c2F)c2ccccc2C(C)CC(C)C)s1 (centres unmarked) [1-292]
evaluation value of control effect (from control value, lesion height) [2]: 5
evaluation value of control effect (from control value, lesion height) [3]: 5
evaluation value of control effect (from control value, lesion height) [4]: 5

Cc1nc(C(F)(F)F)c(C(=O)N(C(=O)c2cn(C)nc2C(F)F)c2ccccc2C(C)CC(C)C)s1 (centres unmarked) [1-300]
evaluation value of control effect (from control value, lesion area percentage) [1]: 5
evaluation value of control effect (from control value, lesion height) [2]: 5
evaluation value of control effect (from control value, lesion height) [3]: 5
evaluation value of control effect (from control value, lesion height) [4]: 5

Cc1nc(C(F)(F)F)c(C(=O)N(C(=O)c2c(C)nn(C)c2F)c2ccccc2C(C)CC(C)C)s1 (centres unmarked) [1-307]
evaluation value of control effect (from control value, lesion area percentage) [1]: 4

Cc1nc(C(F)F)c(C(=O)N(C(=O)c2c(C)nn(C)c2F)c2ccccc2C(C)CC(C)C)s1 (centres unmarked) [1-325]
evaluation value of control effect (from control value, lesion area percentage) [1]: 4

CC(C)CC(C)c1ccccc1N(C(=O)c1cccnc1C(F)F)C(=O)c1cn(C)nc1C(F)F (centres unmarked) [1-349]
evaluation value of control effect (from control value, lesion area percentage) [1]: 4

CC(C)CC(C)c1ccccc1N(C(=O)c1cn(C)nc1C(F)F)C(=O)c1c(C(F)F)nn(C)c1Cl (centres unmarked) [1-354]
evaluation value of control effect (from control value, lesion area percentage) [1]: 5
evaluation value of control effect (from control value, lesion height) [2]: 5
evaluation value of control effect (from control value, lesion height) [3]: 5
evaluation value of control effect (from control value, lesion height) [4]: 5

Cn1cc(C(=O)N(C(=O)c2cccc3nnsc23)c2ccccc2-c2cc(F)c(F)c(F)c2)c(C(F)F)n1 [1-369]
evaluation value of control effect (from control value, lesion area percentage) [1]: 4
evaluation value of control effect (from control value, lesion height) [2]: 5
evaluation value of control effect (from control value, lesion height) [3]: 5
evaluation value of control effect (from control value, lesion height) [4]: 5

Cc1nc(C(F)F)c(C(=O)N(C(=O)c2cn(C)nc2C(F)F)c2ccccc2-c2cc(F)c(F)c(F)c2)s1 [1-372]
evaluation value of control effect (from control value, lesion area percentage) [1]: 4
evaluation value of control effect (from control value, lesion height) [2]: 5
evaluation value of control effect (from control value, lesion height) [3]: 5
evaluation value of control effect (from control value, lesion height) [4]: 5

Cn1cc(C(=O)N(C(=O)c2cc(Cl)c(Cl)s2)c2ccccc2-c2cc(F)c(F)c(F)c2)c(C(F)F)n1 [1-373]
evaluation value of control effect (from control value, lesion area percentage) [1]: 4
evaluation value of control effect (from control value, lesion height) [2]: 5
evaluation value of control effect (from control value, lesion height) [3]: 5
evaluation value of control effect (from control value, lesion height) [4]: 5

Cc1nc(C(F)F)c(C(=O)N(C(=O)c2snc(Cl)c2Cl)c2ccccc2-c2cc(F)c(F)c(F)c2)s1 [7-68]
evaluation value of control effect (from control value, lesion area percentage) [1]: 4

Cc1nc(C(F)F)c(C(=O)N(C(=O)c2snc(Cl)c2Cl)c2c(Br)cc(OC(F)(F)F)cc2Br)s1 [7-129]
evaluation value of control effect (from control value, lesion area percentage) [1]: 4

Cc1nc(C(F)(F)F)c(C(=O)N(C(=O)c2scnc2C(F)(F)F)c2c(Br)cc(OC(F)(F)F)cc2Br)s1 [7-284]
evaluation value of control effect (from control value, lesion height) [2]: 5
evaluation value of control effect (from control value, lesion height) [3]: 5
evaluation value of control effect (from control value, lesion height) [4]: 5

Cc1nc(C(F)F)c(C(=O)N(C(=O)c2snnc2C)c2ccsc2C(C)CC(C)C)s1 (centres unmarked) [11-20]
evaluation value of control effect (from control value, lesion area percentage) [1]: 5

Cc1nc(C(F)F)c(C(=O)N(C(=O)c2cccnc2C(F)F)c2ccccc2C(C)CC(C)C)s1 (centres unmarked) [13-20]
evaluation value of control effect (from control value, lesion area percentage) [1]: 4
evaluation value of control effect (from control value, number of lesions) [5]: 5

Cc1nnsc1C(=O)N(C(=O)c1cn(C)nc1C(F)F)c1cccc2c1C(C)CC2(C)C (centres unmarked) [25-47]
evaluation value of control effect (from control value, lesion area percentage) [1]: 4
evaluation value of control effect (from control value, lesion height) [2]: 5
evaluation value of control effect (from control value, lesion height) [3]: 5
evaluation value of control effect (from control value, lesion height) [4]: 5

CCc1nc(C(F)F)c(C(=O)N(C(=O)c2cn(C)nc2C(F)F)c2cccc3c2C(C)CC3(C)C)s1 (centres unmarked) [25-85]
evaluation value of control effect (from control value, lesion area percentage) [1]: 4
evaluation value of control effect (from control value, lesion height) [2]: 5
evaluation value of control effect (from control value, lesion height) [3]: 5
evaluation value of control effect (from control value, lesion height) [4]: 5

Cc1nc(C(F)(F)F)c(C(=O)N(C(=O)c2cn(C)nc2C(F)F)c2cccc3c2C(C)OC3(C)C)s1 (centres unmarked) [25-92]
evaluation value of control effect (from control value, lesion area percentage) [1]: 4
evaluation value of control effect (from control value, lesion height) [2]: 5
evaluation value of control effect (from control value, lesion height) [3]: 5
evaluation value of control effect (from control value, lesion height) [4]: 5

CC1CC(C)(C)c2cccc(N(C(=O)c3cn(C)nc3C(F)F)C(=O)c3scnc3C(F)(F)F)c21 (centres unmarked) [25-103]
evaluation value of control effect (from control value, lesion area percentage) [1]: 4

CC1CC(C)(C)c2cccc(N(C(=O)c3cn(C)nc3C(F)F)C(=O)c3onc(Cl)c3Cl)c21 (centres unmarked) [25-113]
evaluation value of control effect (from control value, lesion area percentage) [1]: 4
evaluation value of control effect (from control value, lesion height) [2]: 5
evaluation value of control effect (from control value, lesion height) [3]: 5
evaluation value of control effect (from control value, lesion height) [4]: 5

Cc1nnsc1C(=O)N(C(=O)c1c(C)nn(C)c1Cl)c1cccc2c1C(C)OC2(C)C (centres unmarked) [25-116]
evaluation value of control effect (from control value, lesion area percentage) [1]: 4
evaluation value of control effect (from control value, lesion height) [2]: 5
evaluation value of control effect (from control value, lesion height) [3]: 5
evaluation value of control effect (from control value, lesion height) [4]: 5

Cc1nn(C)c(Cl)c1C(=O)N(C(=O)c1onc(Cl)c1Cl)c1cccc2c1C(C)OC2(C)C (centres unmarked) [25-124]
evaluation value of control effect (from control value, lesion area percentage) [1]: 4
evaluation value of control effect (from control value, lesion height) [2]: 5
evaluation value of control effect (from control value, lesion height) [3]: 5
evaluation value of control effect (from control value, lesion height) [4]: 5

Cc1nn(C)c(Cl)c1C(=O)N(C(=O)c1cc(Cl)nc(Cl)c1)c1cccc2c1C(C)OC2(C)C (centres unmarked) [25-125]
evaluation value of control effect (from control value, lesion area percentage) [1]: 4

Cc1nc(C(F)F)c(C(=O)N(C(=O)c2snc(Cl)c2Cl)c2cccc3c2C(C)CC3(C)C)s1 (centres unmarked) [26-8]
evaluation value of control effect (from control value, lesion area percentage) [1]: 5
evaluation value of control effect (from control value, lesion height) [2]: 5
evaluation value of control effect (from control value, lesion height) [3]: 5
evaluation value of control effect (from control value, lesion height) [4]: 5

Cc1nc(C(F)F)c(C(=O)N(C(=O)c2sc(C)nc2C(F)F)c2cccc3c2C(C)CC3(C)C)s1 (centres unmarked) [26-77]
evaluation value of control effect (from control value, lesion area percentage) [1]: 4
evaluation value of control effect (from control value, lesion height) [2]: 5
evaluation value of control effect (from control value, lesion height) [3]: 5
evaluation value of control effect (from control value, lesion height) [4]: 5

Cc1nc(C(F)F)c(C(=O)N(C(=O)c2cc(Cl)no2)c2cccc3c2C(C)CC3(C)C)s1 (centres unmarked) [26-88]
evaluation value of control effect (from control value, lesion area percentage) [1]: 4
evaluation value of control effect (from control value, lesion height) [2]: 5
evaluation value of control effect (from control value, lesion height) [3]: 5
evaluation value of control effect (from control value, lesion height) [4]: 5

CC1CC(C)(C)c2cccc(N(C(=O)c3cccnc3C(F)F)C(=O)c3snc(Cl)c3Cl)c21 (centres unmarked) [27-3]
evaluation value of control effect (from control value, lesion area percentage) [1]: 5
evaluation value of control effect (from control value, lesion height) [2]: 5
evaluation value of control effect (from control value, lesion height) [3]: 5
evaluation value of control effect (from control value, lesion height) [4]: 5

Source: US20210007356A1, “IMIDE DERIVATIVE AND FUNGICIDE CONTAINING SAID DERIVATIVE AS ACTIVE INGREDIENT” (HOKKO CHEMICAL INDUSTRY CO., LTD., priority 2018, published 2021)
